Laboratory results reported in US20060052289A1, “Use of somatostatin analogs in sleep apnea” (priority 2003, published 2006).

How the values were obtained:
[1] = test system: patients with central sleep apnea; test: Clinical study in central sleep apnea; assay type: in vivo, human; details: s.c. 100-600 μg, 2 months
Description: Central Sleep Apnea: 10 patients with central sleep apnea associated with high ventilatory responses to carbon dioxide, are treated with a compound of the invention for 2 months. Sleep recordings, ventilatory control studies (blood gases) and endocrinological controls are performed before, on the first night, at 2 weeks and at 2 months of therapy. In this study, the compounds of the invention, e.g. Compound A, reduce the abnormal high ventilatory responses and the number of central sleep apnea episodes, when administered s.c. at a dose of 100-600 μg.

[2] = test system: patients with predominantly obstructive sleep apnea; test: Clinical study in obstructive sleep apnea; assay type: in vivo, human; details: s.c. 100-600 μg, 2 months
Description: Obstructive Sleep Apnea: 10 patients with predominantly obstructive sleep apnea are treated with Compound A for 2 months. Sleep recordings, blood gases evaluation and endocrinological controls are performed before, on the first night and at 2 months of therapy. In this study, the compounds of the invention, e.g. Compound A, reduce the number of obstructive sleep apnea episodes when administered s.c. at a dose of 100-600 μg.

[3] = Tolerability at dosages required for use; assay type: in vivo; details: free form or pharmaceutically acceptable salt form

Q: With “cyclo[{4-(NH2—C2H4—NH—CO—O—)Pro}-Phg-DTrp-Lys-Tyr(4-Bzl)-Phe] [Compound A]” as the substance, how does the “abnormal high ventilatory responses” value [1] read?
A: reduce

Q: And the “number of central sleep apnea episodes” value [1]?
A: reduce

Q: What about the “number of obstructive sleep apnea episodes” value [2] of the same substance?
A: reduce

Q: What about the tolerability [3] of the same substance?
A: well tolerated
